Measured values from patent EP0433759A1, “4-Substituted alkyl carbapenem antibiotics” (Bristol-Myers Squibb Company, priority 1989, dated 1991).
Converted amounts (≈) assume the structure as drawn. Structures can show the parent of a compound that is named as a salt.

Assays:
[1] = Solubility in water, observation on the lyophilized product; assay type: physicochemical; settings: lyophilized material
Procedure: A solution of (4R,5S,6S)-4-(4"-aminobutyl)-6-[(1'R)-1'-hydroxyethyl]-3-[(pyridin-4-yl)methylthio]-7-oxo-1-azabicyclo[3.2.0]hept-2-ene-2-carboxylic acid (0.134 g, 0.34 mmol) in 15 mL of cold water (pH 6.4), was adjusted to pH 8.0 with 1 M NaOH. Then 0.170 g (1.36 mmol) of aminoiminomethanesulfonic acid [K. Kim et al., Tet. Lett., 29, 3183 (1988)] was added in small portions over 5 min while maintaining the pH at 8 with 1 M NaOH. Three more portions of aminoiminomethanesulfonic acid (3 x 0.050 g) were added at 30 min intervals and the resulting mixture (some insoluble material) was stirred for a total of 3 h at 0-5 C. The pH was maintained throughout at 8 with 1 M NaOH. Then 15 mL of 0.2M pH 6.0 phosphate buffer was added and the resulting homogeneous solution was chromatographed on reverse phase silica gel (µBondapak C18, 2.5 x 14 cm). Elution with a gradient of acetonitrile (0-10%) in water gave 0.103 g (69%) of the title compound as a white amorphous powder after freeze drying.

[2] = system: Pseudomonas aeruginosa, A9843; test: In vitro antibacterial activity (MIC), serial 2-fold dilution; assay type: cell-based; settings: Pseudomonas aeruginosa A9843; Mueller-Hinton; 37°C, 17 h; read-out: Antibacterial Activity MIC P. aer.
Procedure: (§1) In vitro antibacterial activity was determined by serial 2-fold dilution of the compound in Mueller-Hinton agar and inoculation of the agar surface or broth with an appropriately diluted 18-24 h broth culture.

[3] = system: Streptococcus pneumoniae, A9585; test: as above; assay type: cell-based; settings: Streptococcus pneumoniae A9585; Mueller-Hinton; 37°C, 17 h; read-out: Antibacterial Activity MIC S. pn.
Procedure: as §1

Escherichia coli, A15119 = test: as above; assay type: cell-based; settings: Escherichia coli A15119; Mueller-Hinton; 37°C, 17 h; read-out: Antibacterial Activity MIC E. coli
Procedure: as §1

[4] = Chemical stability in aqueous solution (half-life); assay type: physicochemical; settings: 37°C, 10^-4 M, pH 7.4, aqueous solution; read-out: Half-life (T 1/2) (converted)
Procedure: These values were determined by the method of Woodward et al, J. Am. Chem. Soc., 102, 2042 (1980)

For `C[C@@H](O)[C@H]1C(=O)N2C(C(=O)O)=C(SCc3ccncc3)[C@H](CCCCNC(=N)N)[C@H]12` [Example 78, (4R,5S,6S)-4-(4"-Guanidinobutyl]-6-[(1'R)-1'-hydroxyethyl]-3-[(pyridin-4-yl)methylthio]-7-oxo-1-azabicyclo-[3.2.0]hept-2-ene-2-carboxylic acid], the Solubility in water [1] was “only slightly soluble in water”.

Compound `C[C@@H](O)[C@H]1C(=O)N2C(C(=O)O)=C(SCCOC(N)=O)[C@H](CCCCNC(=N)N)[C@H]12` [Example 100, (4R.5S,6S)-3-[(2-Carbamoyloxyethyl)thio)-4-(4"-guanidinobutyl)-6-[(1'R)-1'-hydroxyethyl]-7-oxo-1-azabicyclo-[3.2.0]-hept-2-ene-2-carboxylic acid] has an MIC [2] of 2 µg/mL (≈ 4.66 µM), an MIC [3] of 0.25 µg/mL (≈ 0.582 µM) and an MIC (Escherichia coli, A15119) of 0.008 µg/mL (≈ 0.0186 µM). For the same compound, the half-life at 100 µM [4] was 180 h.

Work on `C[C@@H](O)[C@H]1C(=O)N2C(C(=O)O)=C(SCCN)[C@H](CCCN)[C@H]12` [Example 117, (4R,5S,6S)-4-(3"-Aminopropyl)-3-[(2-aminoethyl)thio]-6-[(1'R)-1'-hydroxyethyl]-7-oxo-1-azabicyclo[3.2.0]hept-2-ene-2-carboxylic acid, acetic acid_salt] yielded an MIC [2] of 0.25 µg/mL, an MIC [3] of 0.13 µg/mL and an MIC (Escherichia coli, A15119) of 0.13 µg/mL. The half-life at 100 µM [4] was 33 h.

For `C[C@@H](O)[C@H]1C(=O)N2C(C(=O)O)=C(SCCN3CCCC3)[C@H](CCCN)[C@H]12` [Example 120, (4R,5S,6S)-4-(3"-Aminopropyl)-6-[(1'R)-1'-hydroxyethyl]-3-[2-(1-pyrrolidinyl)ethylthio]-7-oxo-1-azabicyclo-[3.2.0]-hept-2-ene-2-carboxylic acid, acetic acid salt], the MIC [2] was 0.25 µg/mL, the MIC [3] was 0.03 µg/mL and the MIC (Escherichia coli, A15119) was 0.13 µg/mL. For the same compound, the half-life at 100 µM [4] was 23 h.

Work on `C[C@@H](O)[C@H]1C(=O)N2C(C(=O)O)=C(SCCC#N)[C@H](CCCCCN)[C@H]12` [Example 121] yielded an MIC [2] of 1 µg/mL (≈ 2.72 µM), an MIC [3] of 0.13 µg/mL (≈ 0.354 µM) and an MIC (Escherichia coli, A15119) of 0.004 µg/mL (≈ 0.0109 µM). The half-life at 100 µM [4] was 136 h.

Compound `C[C@@H](O)[C@H]1C(=O)N2C(C(=O)O)=C(SCCC#N)[C@H](CCN(C)CCC#N)[C@H]12` [Example 124, (4R,5S,6S)-3-[(2-Cyanoethyl)thio]-4-[2"-[N,N-(2-cyanoethyl)methylamino]ethy!]-6-[(1'R)-1'-hydroxyethyl]-7-oxo-1-azabicyclo[3.2.0]hept-2-ene-2-carboxylic acid] has an MIC [2] of 2 µg/mL (≈ 5.1 µM), an MIC [3] of 0.016 µg/mL (≈ 0.0408 µM) and an MIC (Escherichia coli, A15119) of 0.03 µg/mL (≈ 0.0764 µM). It also gave a half-life at 100 µM [4] of 21 h.

For `C[C@@H](O)[C@H]1C(=O)N2C(C(=O)O)=C(SCCC#N)[C@H](CCN3CCN(C)CC3)[C@H]12` [Example 126, (4R,5S,6S)-3-[(2-Cyanoethyl)thio]-6-[(1'R)-1'-hydroxyethyl]-4-[2"(4-methylpiperazine-1-yl)ethyl]-7-oxo-1-azabicyclo[3.2.0]hept-2-ene-2-carboxylic acid], the MIC [2] was 2 µg/mL (≈ 4.9 µM), the MIC [3] was 0.016 µg/mL (≈ 0.0392 µM) and the MIC (Escherichia coli, A15119) was 0.008 µg/mL (≈ 0.0196 µM). The half-life at 100 µM [4] was 47 h.

Work on `C[C@@H](O)[C@H]1C(=O)N2C(C(=O)O)=C(SCCN3CCCC3)[C@H](CCCNC(=N)N)[C@H]12` [Example 127, (4R,5S,6S)-4-(3"-Guanidinopropyl)-6-[(1'R)-1'-hydroxyethyl]3-([2-(1-pyrrolidinyl)ethyllthio)-7-oxo-1-azabicyclo[3.2.0]-hept-2-ene-2-carboxylic acid, acetic acid salt] yielded an MIC [2] of 1 µg/mL, an MIC [3] of 0.06 µg/mL and an MIC (Escherichia coli, A15119) of 0.13 µg/mL. It also gave a half-life at 100 µM [4] of 31 h.

Work on `C[C@@H](O)[C@H]1C(=O)N2C(C(=O)O)=C(SCC(=N)N(C)C)[C@H](CCCN)[C@H]12` [Example 130, (4R,5S,6S)-4-(3"-Aminopropyl)-3-[(N,N-dimethylamidinomethyl]thio]-6-[(1'R)-1'-hyroxyethyl]-7-oxo-1-azabicyclo[3.2.0]hept-2-ene-2-carboxylic acid, acetic acid salt] yielded an MIC [2] of 0.06 µg/mL, an MIC [3] of 0.13 µg/mL and an MIC (Escherichia coli, A15119) of 0.13 µg/mL. For the same compound, the half-life at 100 µM [4] was 16 h.

Compound `C[C@@H](O)[C@H]1C(=O)N2C(C(=O)O)=C(SCCC#N)[C@H](CCSCCN)[C@H]12` [Example 131, (4R,5S,6S)-4-(2"-(2-Aminoethylthio)ethyl]-3-[(2-cyanoethylthio]-6-[(1'R)-1'-hydroxyethy)]-7-oxo-1-azabicyclo-[3.2.0]-hept-2-ene-2-carboxylic acid] has an MIC [2] of 2 µg/mL (≈ 5.19 µM), an MIC [3] of 0.25 µg/mL (≈ 0.648 µM) and an MIC (Escherichia coli, A15119) of 0.13 µg/mL (≈ 0.337 µM). The half-life at 100 µM [4] was 46 h.

For `C[C@@H](O)[C@H]1C(=O)N2C(C(=O)O)=C(SCCNC(=N)N)[C@H](CCNC(=N)N)[C@H]12` [Example 135, (4R,5S,6S)-4-(2"-Guanidinoethyl)-3-[(2-guanidinoethyl)-thio]-6-[(1'R)-1'-hydroxyethyl]-7-oxo-1-azabicyclo-[3.2.0]hept-2-ene-2-carboxylic acid, acetic acid salt], the MIC [2] was 0.06 µg/mL, the MIC [3] was 0.03 µg/mL and the MIC (Escherichia coli, A15119) was 0.015 µg/mL. It also gave a half-life at 100 µM [4] of 37 h.

`C[C@@H](O)[C@H]1C(=O)N2C(C(=O)[O-])=C(SCCC#N)[C@H](CC[n+]3ccccc3)[C@H]12` [Example 136, (4R,5S,6S)-3-[(2-Cyanoethyl)thio]-6-[(1'R)-1'-hydroxyethyl]-4-[2"-(1-pyridinium)ethyl]7-oxo-1-azabicyclo-[3.2.0]hept-2-ene-2-carboxylate] showed an MIC [2] of 4 µg/mL (≈ 10.3 µM), an MIC [3] of 0.015 µg/mL (≈ 0.0387 µM) and an MIC (Escherichia coli, A15119) of 0.007 µg/mL (≈ 0.0181 µM). It also gave a half-life at 100 µM [4] of 17 h.

With `CNCCC[C@H]1C(SCCC#N)=C(C(=O)O)N2C(=O)[C@H]([C@@H](C)O)[C@@H]12` [Example 154, (4R,5S,6S)-3-[(2-Cyanoethyl]thio]-6-[(1'R]-1'-hydroxyethyl]-4-(3"-N-methylaminopropyl)-7-oxo-1-azabicyclo[3.2.0]hept-2-ene-2-carboxylic acid] the MIC [2] was 1 µg/mL (≈ 2.83 µM), the MIC [3] was 0.5 µg/mL (≈ 1.41 µM) and the MIC (Escherichia coli, A15119) was 0.25 µg/mL (≈ 0.707 µM). The half-life at 100 µM [4] was 79 h.
